Data on 2 compounds can be found in patent publication US8722697B2, “Pharmaceutical composition for treating hypertension and metabolic syndrome and use thereof” (Lunan Pharmaceutical Group Corporation, priority 2008, dated 2014).

In one assay the test system is calcium channel. The settings on record: background statement; cited from earlier work.
Assay [1] relates to spontaneously hypertensive rats. The experiment in a line: Tail arterial blood pressure of conscious spontaneously hypertensive rats. The assay is classed as in vivo, rat. The settings on record: X ± S, n = 8. The procedure: (§1) Forty-eight spontaneously hypertensive rats (male, body weight (300±20) g, provided by Pharmacological Center for New Medicine of Shandong New Time Pharmaceutical Co., Ltd.) were fed for one week for acclimation, and then randomly divided into six groups with eight animals in each group.
(§2) Model control group: intragastric administration of same volume of physiological saline;
(§3) P group: 1 mg/(kg·d) of pioglitazone;
(§4) A+R group: 2 mg/(kg·d) of amlodipine+1 mg/(kg·d) of rosuvastatin calcium;
(§5) P+R group: 1 mg/(kg·d) of pioglitazone+1 mg/(kg·d) of rosuvastatin calcium;
(§6) Pharmaceutical composition of the present invention: 2 mg/(kg·d) of amlodipine+1 mg/(kg·d) of pioglitazone+1 mg/(kg·d) of rosuvastatin calcium;
(§7) Each group was given intragastric administration once every day for ten weeks. During the experiment, the diet, survival status and behaviors of the animals were recorded, and the animals were weighted once every day and the doses of administration were adjusted according to the body weights. Animals were sacrificed after ten weeks, and their hearts were taken out to determine the weights of left ventricles and calculate left ventricular indexes.
Blood pressures were measured five times between two and five hours after intragastric administration in the first week, the third week and the sixth week, respectively. The average value of the blood pressures was used as the blood pressure of the sample.

Assay [2] shares this test system. As to the kind of experiment: Cardiac hypertrophy (left ventricular weight/body weight) in spontaneously hypertensive rats. The settings on record: after ten weeks of intragastric administration once daily; X ± S, n = 8. The assay is classed as in vivo, rat. The procedure: as §1, §2, §3, §4, §5, §6, §7
After being sacrificed with 10% potassium chloride (2 mmol/L, 1 ml/rat), the rats were weighed. […] The left ventricular was weighed after the atria were removed, and a ratio of left ventricular weight to body weight was calculated.

For assay [3] the test system is unchanged. As to the kind of experiment: Urinary microalbumin (bromophenol blue absorbance) in spontaneously hypertensive rats. The assay is classed as in vivo, rat. The note with it: intragastric once daily, high sugar and high fat diets, doses per group b107-b111; twelve-hour overnight urine; week not stated; X ± S, n = 8.
Source text: as §2

The test system is the same in assay [4]. The experiment in a line: Carotid intima-media thickness in spontaneously hypertensive rats. It is filed as in vivo, rat. The settings on record: carotid artery; intragastric once daily for six months, high sugar and high fat diets; X ± S, n = 8. How it is done:
Forty-eight spontaneously hypertensive rats (male, body weight (300±20) g, provided by the Pharmacological Center for New Medicine of Shandong New Time Pharmaceutical Co., Ltd.) were fed for one week for acclimation, and then randomly divided into six groups with eight rats in each group.
as §2
P group: intragastric administration of 2 mg/(kg·d) of pioglitazone;
LA+R group: intragastric administration of 1 mg/(kg·d) of levo-amlodipine+1 mg/(kg·d) of rosuvastatin calcium;
P+R group: intragastric administration of 2 mg/(kg·d) of pioglitazone+1 mg/(kg·d) of rosuvastatin calcium;
LA group: intragastric administration of 1 mg/(kg·d) of levo-amlodipine;
Pharmaceutical composition of the present invention: intragastric administration of 1 mg/(kg·d) of levo-amlodipine+2 mg/(kg·d) of pioglitazone+1 mg/(kg·d) of rosuvastatin calcium;
Each group was given intragastric administration once every day and fed with high sugar and high fat diets for six months. During the experiment, the diet, survival status and behaviors of the animals were recorded, and the animals were weighed once every week and the doses of administration were adjusted according to the body weights.
After the animal was anesthetized and fixed, Even's blue (60 mg/kg) dye was injected via a femoral artery. […]

Assay [5] relates to patients suffered from metabolic syndrome. The experiment in a line: Clinical treatment of patients suffered from metabolic syndrome. The assay is classed as in vivo, human. The note with it: X ± S. The text has this:
Eighty-eight metabolic syndrome patients were selected from those received treatment in Linyi People's Hospital from May 2007 to May 2008, and randomly divided into a control group and an experimental group.
Control group: twenty-eight males and sixteen females, whose ages were between 62 and 71 and whose body mass indexes (BMI) were between 25.5 and 30;
Experimental group: twenty-four males and twenty females, whose ages were between 60 and 70 and whose body mass indexes (BMI) were between 24.5 and 31;
Before the treatment, all patients were subjected to blood lipids (including total cholesterol (TC), high-density lipid cholesterol (HDLC)) analysis, and detection of glycated hemoglobin (HbAlC), fasting blood glucose (FBG), fasting insulin (FINS) and fibrinogen (Fg).
Patients suffered from metabolic syndrome were selected according to the diagnostic standards for type-II diabetes mellitus and hypertension made by WHO in 1999 and referring to the diagnostic standards for metabolic syndrome made by US National Cholesterol Education Program Adult Treatment Panel (NCEP-ATP III) in 2000, while cases of […], heart failure (above grade II), diseases in liver, kidney and blood system and like were excluded.
Patients in the control group were administrated with 15 mg of pioglitazone once every day, and patients in the experimental group were administrated with 5 mg of amlodipine, 7.5 mg of pioglitazone and 5 mg of rosuvastatin calcium, i.e. the proportions as described in Example 1, once every day. After eight weeks of continuous treatment, all of the above parameters were re-determined, in which blood glucose was determined with hexokinase method, blood lipid was determined with esterase method, fibrinogen was determined with coagulation method and chromogenic substrate assay, HbAlC was determined with chromatography, and fasting insulin was determined with chemiluminescence immunoassay.
Statistical analysis: SPSS software was employed, and test of significance was performed by using a paired sample t test.

The mark [6] stands for this setting: intragastric once daily, 2-5 h after administration.

Turning to levo-amlodipine [A Group], in the assay on calcium channel, the “Activity relative to the dextroisomer” value is on record as 1000 times and the “Activity relative to the racemate” value was “twice as high as that of the racemate”.

As for `CCc1ccc(CCOc2ccc(CC3SC(=O)NC3=O)cc2)nc1` (stereo not shown) [P group, pioglitazone], in assay [1] (baseline before treatment), the “Blood pressure, before treatment” value stood at 151 ± 7.6 mmHg. Moreover, in assay [1] (setting [6]), the “Blood pressure after treatment, first week” value is 157 ± 8.6 mmHg; the “Blood pressure after treatment, sixth week” value amounted to 170 ± 8.8 mmHg; the “Blood pressure after treatment, third week” value is on record as 162 ± 10.3 mmHg. Moreover, in assay [2], the Left ventricular weight is recorded as 0.99 ± 0.10 g and the “Left ventricular weight/body weight (×10^−3)” value is listed as 3.33 ± 0.19 ×10^−3. For the same compound, the “Urinary microalbumin, Absorbance A (600 nm)” value in assay [3] is 0.568 ± 0.125^•. In assay [4], the Maximum intima thickness was 0.130 ± 0.026 mm and the “Ratio of intima to media thickness” value was 2.246 ± 0.361. Also, in assay [5] (after eight weeks, once every day, chemiluminescence immunoassay), the “FINS (fasting insulin), after treatment” value was found to be 25.68 ± 5.34 mlU/L. In assay [5] (after eight weeks, once every day, chromatography), the “HbAlC (glycated hemoglobin), after treatment” value is reported as 6.39 ± 0.56%. For the same compound, the “Fg (fibrinogen), after treatment” value in assay [5] (after eight weeks, once every day, coagulation method and chromogenic substrate assay) turned out to be 392.6 ± 64.51 mg/dL. Besides, the “FBG (fasting blood glucose), after treatment” value in assay [5] (after eight weeks, once every day, hexokinase method) was determined as 6.63 ± 1.65 mmol/L. For the same compound, in assay [5] (baseline before treatment, chemiluminescence immunoassay), the “FINS (fasting insulin), before treatment” value is 32.4 ± 7.21 mlU/L. Besides, the “HbAlC (glycated hemoglobin), before treatment” value in assay [5] (baseline before treatment, chromatography) is 6.89 ± 0.65%. Also, in assay [5] (baseline before treatment, coagulation method and chromogenic substrate assay), the “Fg (fibrinogen), before treatment” value is 419.6 ± 89.62 mg/dL. Besides, the “FBG (fasting blood glucose), before treatment” value in assay [5] (baseline before treatment, hexokinase method) came out at 7.12 ± 2.06 mmol/L.
